Patent publication US20070225348A1, “Amino acid composition for improving glucose tolerance” (priority 2005, published 2007)

Test system: Zucker Diabetic Fatty rats (model with type 2 diabetes mellitus)
Assay: Experiment 2: blood glucose response after oral gavage of glucose with amino acid test mixture or isoleucine solution
Assay type: in vivo, rat
Settings: oral gavage 8 ml/kg with glucose, measured at 30, 60, 90 and 120 minutes, control 22.5% glucose solution
Method: The control formula (22.5% glucose solution) and the amino acid test formula described in Experiment 1 are prepared and subsequently used in this second experiment, along with an isoleucine mixture as described below. In this second experiment, a high dose isoleucine mixture is prepared by adding L-isoleucine ([…]) to 50 ml beaker followed by 10 ml of 1N HCL. The beaker contents are mixed until dissolved, and thereafter to it is added with agitation 25 ml of a 45% glucose solution. The pH of the resulting mixture is adjusted to 7.0 (+/−1.0) with a 50% sodium hydroxide solution (buffer may be added to stabilize pH). The pH adjusted mixture is transferred to a 50 ml volumetric and brought to volume with distilled water. The mixture is transferred to a beaker with stir bar and continually stirred while filling syringes. Zucker Diabetic Fatty rats, a model of type 2 diabetes, are received at the animal facility for at least one week before testing. Each is weighed the day before the experiment and then assigned to one of […] matched for body weight. After an overnight fast, each rat is weighed and then dosed at 8 ml/kg body weight (oral gavage) with the glucose control, the amino acid test mixture, or the isoleucine solution. Blood glucose concentrations are then measured from the tip of the tail of each animal at 30, 60, 90 and 120 minutes following the gavage.

## CC[C@H](C)[C@H](N)C(=O)O [high dose isoleucine, L-isoleucine]
  blood glucose concentrations relative to the control: does not significantly affect blood glucose concentrations
